Key:
[1] = test system: MCF7; experiment: cells; details: Homo sapiens, MCF7, 72 h
Description: Cytotoxicity against human MCF7 cells assessed as cell viability after 72 hrs by MTS assay

[2] = cells; details: Homo sapiens, Calu-6, 72 h
Description: Cytotoxicity against human Calu6 cells assessed as cell viability after 72 hrs by MTS assay

IC50 [1]	IC50 [2]	SMILES
157 µM	125 µM	CSCC[C@H](NC(=O)[C@@H](NC(=O)[C@H](CCCNC(=N)N)NC(=O)[C@H](C)N)[C@@H](C)O)C(=O)N[C@H]1CCCCNC(=O)CC[C@@H](C(=O)N[C@H](C(=O)NCC(=O)NCC(=O)N[C@@H](CCCCN)C(=O)N[C@@H](C)C(=O)N2CCC[C@H]2C(=O)N[C@@H](CCCNC(=N)N)C(=O)N[C@@H](CCCCN)C(=O)N[C@@H](CCC(N)=O)C(=O)N[C@@H](CC(C)C)C(=O)N[C@@H](C)C(N)=O)[C@@H](C)O)NC(=O)[C@H](CCCCN)NC(=O)[C@H](CCCNC(=N)N)NC(=O)[C@H](C)NC(=O)[C@H]([C@@H](C)O)NC1=O
–	10.9 µM	N=C(NCCCNCCCCCCCNCCCNC(=N)NC(=N)NCCC(c1ccccc1)c1ccccc1)NC(=N)NCCC(c1ccccc1)c1ccccc1
